Results reported in PubChem BioAssay (NCI).
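Values below derive from 48-hour exposures of cells grown in 96-well plates, with endpoints linearly interpolated between the two concentrations bracketing the appropriate inhibition level. Abbreviation: GI50, concentration required for 50% inhibition of growth. TGI: total growth inhibition.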

Tests used:
Assay in all cases: inhibition of tumour cell growth, NCI panel, 48 h
COLO 205 colon = tested on: COLO 205 colon
DLD-1 colon = tested on: DLD-1 colon
HCC-2998 colon = tested on: HCC-2998 colon
HCT-15 colon = tested on: HCT-15 colon
M19-MEL melanoma = tested on: M19-MEL melanoma
NCI-H460 lung = tested on: NCI-H460 lung
NCI-H522 lung = tested on: NCI-H522 lung
RPMI-8226 leukemia = tested on: RPMI-8226 leukemia
SR leukemia = tested on: SR leukemia
SW-620 colon = tested on: SW-620 colon
UO-31 renal = tested on: UO-31 renal

| Structure (SMILES) | TGI (COLO 205 colon) [µM] | TGI (DLD-1 colon) [µM] | TGI (HCC-2998 colon) [µM] | TGI (HCT-15 colon) [µM] | TGI (M19-MEL melanoma) [µM] | TGI (NCI-H460 lung) [µM] | TGI (NCI-H522 lung) [µM] | TGI (RPMI-8226 leukemia) [µM] | TGI (SR leukemia) [µM] | TGI (SW-620 colon) [µM] | TGI (UO-31 renal) [µM] | GI50 (COLO 205 colon) [µM] | GI50 (HCC-2998 colon) [µM] | GI50 (HCT-15 colon) [µM] | GI50 (NCI-H460 lung) [µM] | GI50 (NCI-H522 lung) [µM] | GI50 (RPMI-8226 leukemia) [µM] | GI50 (SR leukemia) [µM] | GI50 (SW-620 colon) [µM] | GI50 (UO-31 renal) [µM] |
| --- | --- | --- | --- | --- | --- | --- | --- | --- | --- | --- | --- | --- | --- | --- | --- | --- | --- | --- | --- | --- |
| COc1ccc(C(=O)Cc2cc(OC)ccc2OC)cc1 | > 100 | > 100 | > 100 | > 100 | > 100 | > 100 | > 100 | > 100 | > 100 | > 100 | > 100 |  |  |  |  |  |  |  |  |  |
| CC(C)=CCN(N=O)c1ncnc2nc[nH]c12 | > 100 |  | > 100 |  |  | > 100 | > 100 | > 100 | > 100 | > 100 | > 100 |  |  |  |  |  |  |  |  |  |
| COc1ccccc1C1C(C#N)=C(N)OC2=C1C(=O)CCC2 (stereo unspecified) | > 100 |  | > 100 | > 100 |  | > 100 | > 100 | 44.2 | > 100 | > 100 | > 100 | > 100 | > 100 | > 100 | > 100 | > 100 | 5.77 | 14.2 | > 100 | > 100 |
| CCCCc1ccc2[n+](c1)C(C(=O)OCC)=PC2 (stereo unspecified) | > 100 |  | > 100 | > 100 |  | > 100 | > 100 | > 100 | > 100 | > 100 |  |  |  |  |  |  |  |  |  |  |
| O=C1c2ccccc2-c2ccc(NC(=O)C3CCCCC3C(=O)O)cc21 (stereo unspecified) | > 100 |  |  | > 100 |  | > 100 | > 100 | > 100 | > 100 | > 100 | > 100 |  |  |  |  |  |  |  |  |  |
| O=CNc1cccc2c3c([nH]c12)CCCCCC3 | > 100 | > 100 | > 100 | > 100 | > 100 | > 100 | > 100 |  |  | > 100 | > 100 |  |  |  |  |  |  |  |  |  |
| C=C1C(=O)O[C@H]2C1[C@H](OC(=O)/C(C)=C\COC(C)=O)C[C@]1(CO1)[C@@H]1[C@H](O)[C@H]3O[C@@]3(C)[C@@H]12 (stereo partly specified) | 21.9 | 34.1 | 22.2 | > 56.1 | 34.4 | > 100 | 22.8 | 46.5 |  | 30.8 | > 100 |  |  |  |  |  |  |  |  |  |
| COC(=O)C(C)N1C(=O)c2ccccc2I1OC(C)=O (stereo unspecified) | 35 |  | 38.4 | > 100 |  | > 100 | > 100 | 37.6 | 49.2 | 29.5 | > 100 | 14.4 | 17.4 | 37.9 | > 100 | 39.8 | 15.3 | 19.7 | 15.5 | 54.2 |
| CCOC(=O)C1C(c2cc(OC)c(O)c(OC)c2)c2cc3c(cc2OC1(C)O)OCO3 (stereo unspecified) | > 100 | > 100 |  | > 100 | > 100 | > 100 |  | > 100 |  | > 100 | > 100 |  |  |  |  |  |  |  |  |  |
| COc1cc(N=Nc2cccc(S(=O)(=O)O)c2)c(C)cc1N=Nc1ccc(/C=C/c2ccc(N=[N+]([O-])c3ccc(/C=C/c4ccc(N=Nc5cc(C)c(N=Nc6cccc(S(=O)(=O)O)c6)cc5OC)cc4)c(S(=O)(=O)O)c3)cc2S(=O)(=O)O)cc1 | > 100 | > 100 | > 100 | > 100 | > 100 | > 100 | > 100 |  |  | > 100 | > 100 |  |  |  |  |  |  |  |  |  |
| Cc1cc(NS(=O)(=O)c2ccc(Nc3c4ccccc4nc4c(C(=O)NCCN(C)C)ccc(Cl)c34)cc2)no1 | 14.9 | 17 |  | 19.5 | 16.9 | 11.4 | 3.86 |  | 10.8 | 15.5 | 7.84 |  |  |  |  |  |  |  |  |  |
